Data taken from ChEMBL document CHEMBL4765416, “Design, synthesis, and evaluation of pyrrolidine based CXCR4 antagonists with in vivo anti-tumor metastatic activity” (Eur J Med Chem, 2020).
Active and inactive are the calls of the source. No cut-off for these calls is given here.

Assays:
[1] = biological target: T1, C-X-C chemokine receptor type 4 (Homo sapiens, UniProt P61073); assay: Antagonist activity at CXCR4 in human CD4-positive T cells assessed as inhibition of CXCL12-induced cytosolic calcium flux preincubated for 20 mins followed by CXCL12 addition by calcium 4 dye based FLIPR TETRA analysis; assay type: functional, cell-based, T cell
T1 sequence (P61073 whole entry): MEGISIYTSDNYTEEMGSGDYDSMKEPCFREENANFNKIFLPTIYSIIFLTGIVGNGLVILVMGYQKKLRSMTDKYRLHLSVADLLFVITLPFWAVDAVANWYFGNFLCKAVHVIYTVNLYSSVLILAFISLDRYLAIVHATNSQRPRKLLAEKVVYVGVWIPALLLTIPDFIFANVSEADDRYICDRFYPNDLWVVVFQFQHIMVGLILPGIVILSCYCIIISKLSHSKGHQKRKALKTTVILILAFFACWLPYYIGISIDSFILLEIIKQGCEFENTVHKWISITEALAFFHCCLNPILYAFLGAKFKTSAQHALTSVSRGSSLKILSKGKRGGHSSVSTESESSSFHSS

[2] = biological target: T1, C-X-C chemokine receptor type 4; assay: Inhibition of APC-conjugated anti-human CXCR4 clone 12G5 binding to CXCR4 in human HPBALL cells measured after 3 hrs by FACS analysis; assay type: cell-based
[3] = Intrinsic clearance in rat liver microsomes at 1 uM peincubated for 10 mins followed by NADPH addition and measured 60 mins by LC-MS/MS analysis; assay type: ADME, Microsome; details: time 70 min, read-out: CLH
[4] = Half life in rat liver microsomes at 1 uM peincubated for 10 mins followed by NADPH addition and measured 60 mins by LC-MS/MS analysis; assay type: ADME, Microsome; details: time 70 min
[5] = biological target: T2, C-C chemokine receptor type 6 (Homo sapiens) (UniProt P51684); assay: Antagonist activity at CCR6 in human CD4-positive T cells assessed as inhibition of CCL20-induced cytosolic calcium flux up to 10 uM by calcium 4 dye based FLIPR TETRA analysis; assay type: functional; details: T cell, dose microM <=10
T2 sequence (whole entry): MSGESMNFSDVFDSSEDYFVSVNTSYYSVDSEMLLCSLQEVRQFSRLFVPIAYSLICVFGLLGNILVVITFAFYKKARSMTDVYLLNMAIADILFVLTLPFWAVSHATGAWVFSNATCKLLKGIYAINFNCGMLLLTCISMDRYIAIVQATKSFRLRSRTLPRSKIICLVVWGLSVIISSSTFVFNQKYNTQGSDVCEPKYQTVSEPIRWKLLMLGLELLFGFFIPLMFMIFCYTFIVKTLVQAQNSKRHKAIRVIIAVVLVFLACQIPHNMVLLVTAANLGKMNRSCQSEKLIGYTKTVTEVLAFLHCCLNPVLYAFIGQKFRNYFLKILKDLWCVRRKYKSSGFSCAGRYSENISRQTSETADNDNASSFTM

[6] = Dissociation constant, basic pKa of compound by titration method; assay type: physicochemical
[7] = biological target: CYP2D6 (Homo sapiens, UniProt P10635); assay: Inhibition of CYP2D6 in human liver microsomes at 10 uM using dextromethorphan as substrate preincubated for 10 mins followed by NADPH addition measured after 10 mins by LC-MS/MS analysis relative to control; assay type: ADME; details: probe dextromethorphan, time 20 min
CYP2D6, sequence (P10635 whole entry): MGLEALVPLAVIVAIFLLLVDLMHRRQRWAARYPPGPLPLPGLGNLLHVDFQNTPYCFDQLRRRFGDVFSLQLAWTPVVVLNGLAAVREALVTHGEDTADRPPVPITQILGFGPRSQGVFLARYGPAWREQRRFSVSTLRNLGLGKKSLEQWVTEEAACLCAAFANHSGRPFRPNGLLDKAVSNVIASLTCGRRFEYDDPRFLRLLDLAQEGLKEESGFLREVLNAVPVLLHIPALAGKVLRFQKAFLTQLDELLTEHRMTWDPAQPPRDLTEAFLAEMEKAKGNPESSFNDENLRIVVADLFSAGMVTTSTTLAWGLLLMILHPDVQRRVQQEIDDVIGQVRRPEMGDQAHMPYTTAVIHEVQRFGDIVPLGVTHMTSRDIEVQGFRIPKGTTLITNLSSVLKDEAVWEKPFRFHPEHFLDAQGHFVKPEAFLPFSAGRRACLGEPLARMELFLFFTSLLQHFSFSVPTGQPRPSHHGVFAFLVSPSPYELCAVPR

[8] = 1-Octanol/water partition coefficient, log P of compound at pH 7.4 measured after 24 hrs by shake flask method; assay type: physicochemical
[9] = biological target: CYP2C9 (Homo sapiens, UniProt P11712); assay: Inhibition of CYP2C9 in human liver microsomes at 10 uM using tolbutamide as substrate preincubated for 10 mins followed by NADPH addition measured after 10 mins by LC-MS/MS analysis relative to control; assay type: ADME; details: probe tolbutamide
CYP2C9, sequence (P11712 whole entry): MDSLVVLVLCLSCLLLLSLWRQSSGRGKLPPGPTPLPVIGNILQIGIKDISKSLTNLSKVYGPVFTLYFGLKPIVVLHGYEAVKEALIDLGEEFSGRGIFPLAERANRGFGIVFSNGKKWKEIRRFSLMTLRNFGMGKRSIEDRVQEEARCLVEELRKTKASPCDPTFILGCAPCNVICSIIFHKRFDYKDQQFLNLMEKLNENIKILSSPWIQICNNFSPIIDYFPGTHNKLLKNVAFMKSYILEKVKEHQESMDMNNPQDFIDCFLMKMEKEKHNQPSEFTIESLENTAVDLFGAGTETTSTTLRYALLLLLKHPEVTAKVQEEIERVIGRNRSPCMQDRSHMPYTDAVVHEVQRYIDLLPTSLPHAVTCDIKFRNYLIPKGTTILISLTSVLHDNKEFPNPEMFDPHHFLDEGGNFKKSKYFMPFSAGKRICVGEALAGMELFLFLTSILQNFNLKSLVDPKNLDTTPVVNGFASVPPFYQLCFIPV

[10] = Protein binding in human plasma at 1 uM; assay type: ADME, cell-free; details: read-out: PPB (converted)
[11] = Cytotoxicity against […] Hepa1-6 cells assessed as reduction in cell proliferation up to 1000 nM by ATP-based celltiter-glo luminescent assay
[12] = biological target: T3, CYP1A2 (Homo sapiens, UniProt P05177); assay: Inhibition of CYP1A2 in human liver microsomes at 10 uM using phenacetin as substrate preincubated for 10 mins followed by NADPH addition measured after 10 mins by LC-MS/MS analysis relative to control; assay type: ADME; details: probe phenacetin, time 20 min
T3 sequence (P05177 whole entry): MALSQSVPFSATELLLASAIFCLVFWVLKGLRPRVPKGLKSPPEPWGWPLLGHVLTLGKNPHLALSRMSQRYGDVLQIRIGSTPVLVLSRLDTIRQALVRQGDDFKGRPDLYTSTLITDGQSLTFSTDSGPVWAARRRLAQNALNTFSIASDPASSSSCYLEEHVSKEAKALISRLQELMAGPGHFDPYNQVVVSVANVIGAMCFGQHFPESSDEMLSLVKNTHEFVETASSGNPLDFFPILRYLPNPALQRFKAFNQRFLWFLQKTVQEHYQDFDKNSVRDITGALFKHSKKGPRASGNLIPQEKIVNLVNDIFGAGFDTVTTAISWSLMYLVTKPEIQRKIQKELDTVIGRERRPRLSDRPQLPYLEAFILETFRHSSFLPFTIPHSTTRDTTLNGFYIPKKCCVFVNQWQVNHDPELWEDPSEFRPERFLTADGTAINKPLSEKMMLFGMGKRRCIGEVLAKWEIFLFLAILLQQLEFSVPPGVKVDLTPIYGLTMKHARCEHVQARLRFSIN

[13] = biological target: Voltage-gated inwardly rectifying potassium channel KCNH2 (Homo sapiens, UniProt Q12809); assay: Inhibition of human ERG stably expressed in CHO cells at -80 mV holding potential measured after 4 mins by Qpatch electrophysiological assay; assay type: cell-based
Voltage-gated inwardly rectifying potassium channel KCNH2, sequence (Q12809 whole entry): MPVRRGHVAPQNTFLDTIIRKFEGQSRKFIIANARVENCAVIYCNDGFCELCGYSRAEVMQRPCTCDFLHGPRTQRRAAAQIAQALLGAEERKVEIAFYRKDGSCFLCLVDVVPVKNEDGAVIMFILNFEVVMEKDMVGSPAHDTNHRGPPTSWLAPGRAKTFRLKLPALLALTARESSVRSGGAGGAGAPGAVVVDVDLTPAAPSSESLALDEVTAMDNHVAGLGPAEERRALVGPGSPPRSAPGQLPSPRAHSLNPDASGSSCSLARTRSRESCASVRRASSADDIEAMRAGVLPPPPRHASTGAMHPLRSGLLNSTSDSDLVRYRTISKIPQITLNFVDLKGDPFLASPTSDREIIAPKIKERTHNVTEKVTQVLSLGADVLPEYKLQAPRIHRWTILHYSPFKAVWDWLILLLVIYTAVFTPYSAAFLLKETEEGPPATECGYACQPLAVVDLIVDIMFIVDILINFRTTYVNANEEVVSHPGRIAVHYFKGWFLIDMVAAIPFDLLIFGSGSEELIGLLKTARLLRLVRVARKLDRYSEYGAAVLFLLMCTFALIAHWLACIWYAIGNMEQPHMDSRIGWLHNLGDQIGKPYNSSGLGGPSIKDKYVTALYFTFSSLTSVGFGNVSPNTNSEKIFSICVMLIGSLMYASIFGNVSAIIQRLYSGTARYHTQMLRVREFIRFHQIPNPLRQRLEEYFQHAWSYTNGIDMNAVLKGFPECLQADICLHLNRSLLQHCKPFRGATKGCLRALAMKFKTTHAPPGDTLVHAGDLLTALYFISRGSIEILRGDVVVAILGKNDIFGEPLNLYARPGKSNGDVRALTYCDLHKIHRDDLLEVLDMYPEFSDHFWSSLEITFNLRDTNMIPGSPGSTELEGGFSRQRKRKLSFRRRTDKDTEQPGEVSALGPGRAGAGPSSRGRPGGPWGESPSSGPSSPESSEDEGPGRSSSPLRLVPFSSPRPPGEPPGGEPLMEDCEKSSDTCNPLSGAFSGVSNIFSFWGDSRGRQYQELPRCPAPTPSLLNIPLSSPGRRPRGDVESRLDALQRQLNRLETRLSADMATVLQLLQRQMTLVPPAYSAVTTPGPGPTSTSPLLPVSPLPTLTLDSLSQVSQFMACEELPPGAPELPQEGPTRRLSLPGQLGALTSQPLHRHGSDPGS

[14] = test system: L929; assay: Cytotoxicity against mouse L929 cells assessed as reduction in cell proliferation up to 1000 nM by ATP-based celltiter-glo luminescent assay
[15] = test system: MEF; assay: Cytotoxicity against MEF cells assessed as reduction in cell proliferation up to 1000 nM by ATP-based celltiter-glo luminescent assay; details: mouse
[16] = Protein binding in rat plasma at 1 uM; assay type: ADME, cell-free; details: read-out: PPB (converted)
[17] = biological target: T4, CYP3A4 (Homo sapiens, UniProt P08684); assay: Inhibition of CYP3A4 in human liver microsomes at 10 uM using testosterone as substrate preincubated for 10 mins followed by NADPH addition measured after 10 mins by LC-MS/MS analysis relative to control; assay type: ADME; details: probe testosterone, time 20 min
T4 sequence (P08684 whole entry): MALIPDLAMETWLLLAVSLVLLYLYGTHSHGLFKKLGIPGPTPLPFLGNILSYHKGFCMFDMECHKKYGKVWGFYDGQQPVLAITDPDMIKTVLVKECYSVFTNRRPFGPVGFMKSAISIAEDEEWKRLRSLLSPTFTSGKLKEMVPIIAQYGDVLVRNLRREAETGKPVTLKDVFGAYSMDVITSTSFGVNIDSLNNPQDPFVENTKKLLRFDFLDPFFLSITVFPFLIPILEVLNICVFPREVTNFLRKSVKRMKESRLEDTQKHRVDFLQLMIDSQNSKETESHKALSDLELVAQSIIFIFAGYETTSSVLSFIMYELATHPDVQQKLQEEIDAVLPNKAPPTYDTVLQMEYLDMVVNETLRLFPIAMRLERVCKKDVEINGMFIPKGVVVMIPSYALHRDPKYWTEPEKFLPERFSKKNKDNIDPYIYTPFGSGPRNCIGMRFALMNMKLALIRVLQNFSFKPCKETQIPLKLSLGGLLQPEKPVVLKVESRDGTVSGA

[18] = biological target: T5, C-X-C chemokine receptor type 1 (Homo sapiens) (UniProt P25024); assay: Antagonist activity at CXCR1 (unknown origin) expressed in HEK293 cells assessed as suppression of IL-8-induced inhibition of forskolin-induced cAMP formation up to 10 uM preincubated for 15 mins followed by forskolin and IL-8 stimulation and measured after 15 mins by cAMP-d2 and Eu-Anti-cAMP based fluorescence assay; assay type: functional, cell-based; details: dose microM <=10, time 30.0 min
T5 sequence (whole entry): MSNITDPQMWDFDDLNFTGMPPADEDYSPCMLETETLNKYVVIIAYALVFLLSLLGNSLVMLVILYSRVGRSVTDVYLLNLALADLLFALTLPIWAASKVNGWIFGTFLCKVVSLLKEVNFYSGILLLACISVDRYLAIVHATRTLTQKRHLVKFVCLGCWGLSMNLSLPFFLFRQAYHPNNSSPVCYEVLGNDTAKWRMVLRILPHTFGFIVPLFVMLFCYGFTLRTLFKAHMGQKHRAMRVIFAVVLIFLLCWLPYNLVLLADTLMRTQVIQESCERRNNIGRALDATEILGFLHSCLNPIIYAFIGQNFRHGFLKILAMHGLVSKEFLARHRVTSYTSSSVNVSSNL

[19] = biological target: T4, CYP3A4; assay: Inhibition of CYP3A4 in human liver microsomes at 10 uM using midazolam as substrate preincubated for 10 mins followed by NADPH addition measured after 10 mins by LC-MS/MS analysis relative to control; assay type: ADME; details: probe midazolam, time 20 min
[20] = test system: Lewis lung carcinoma; assay: Antimetastatic activity against RFP-labelled LL2 cells allografted in C57BL6 mouse assessed as reduction in metastatic lung nodules at 70 mg/kg, ip treated 30 mins prior to tumor implantation followed by redosing at 3 hrs post tumor implantation and subsequent daily dosing for 18 days by fluorescence assay; assay type: functional, organism-based; details: time 18.0 day
[21] = biological target: CYP2C19 (Homo sapiens, UniProt P33261); assay: Inhibition of CYP2C19 in human liver microsomes at 10 uM using S-mephenytoin as substrate preincubated for 10 mins followed by NADPH addition measured after 10 mins by LC-MS/MS analysis relative to control; assay type: ADME; details: probe S-mephenytoin, time 20 min
CYP2C19, sequence (P33261 whole entry): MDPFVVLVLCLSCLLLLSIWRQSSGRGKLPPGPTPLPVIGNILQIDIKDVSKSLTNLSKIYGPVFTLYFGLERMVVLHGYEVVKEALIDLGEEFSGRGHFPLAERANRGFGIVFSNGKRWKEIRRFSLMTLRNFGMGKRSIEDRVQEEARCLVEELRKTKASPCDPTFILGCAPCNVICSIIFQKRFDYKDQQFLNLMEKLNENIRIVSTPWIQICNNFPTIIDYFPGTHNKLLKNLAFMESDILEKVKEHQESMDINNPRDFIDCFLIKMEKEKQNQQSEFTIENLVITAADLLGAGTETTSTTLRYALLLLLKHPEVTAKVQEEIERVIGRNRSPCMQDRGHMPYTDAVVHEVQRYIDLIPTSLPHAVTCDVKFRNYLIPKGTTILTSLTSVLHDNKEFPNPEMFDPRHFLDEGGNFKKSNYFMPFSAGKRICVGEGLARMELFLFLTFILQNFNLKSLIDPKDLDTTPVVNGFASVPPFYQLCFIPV

[22] = Half life in human liver microsomes at 1 uM peincubated for 10 mins followed by NADPH addition and measured 60 mins by LC-MS/MS analysis; assay type: ADME, Microsome; details: time 70 min
[23] = biological target: T1, C-X-C chemokine receptor type 4; assay: Antagonist activity at CXCR4 in human MDA-MB-231 cells assessed as inhibition of CXCL12-induced cell migration at 100 nM measured after 24 hrs by crystal violet staining based matrigel invasion assay; details: filed as antagonist
[24] = Intrinsic clearance in human liver microsomes at 1 uM peincubated for 10 mins followed by NADPH addition and measured 60 mins by LC-MS/MS analysis; assay type: ADME, Microsome; details: time 70 min, read-out: CLH
[25] = Protein binding in mouse plasma at 1 uM; assay type: ADME, cell-free; details: read-out: PPB (converted)
[26] = test system: MDA-MB-231; assay: Cytotoxicity against human MDA-MB-231 cells assessed as reduction in cell proliferation up to 1000 nM by ATP-based celltiter-glo luminescent assay

Cc1nc(CN2CCC[C@H]2c2ncccc2C)cc(N2CCCN(C)CC2)n1
IC50 [1]: 0.4 nM

Cc1cccc([C@@H]2CCCN2Cc2cc(N3CCN(C)CC3)nc(C)n2)n1
IC50 [2]: 2390 nM

CCN1CCN(c2cc(CN(C)[C@H]3CCCc4cccnc43)nc(C)n2)CC1
CLint scaled at 1 µM [3]: 2180 mL/min/kg | half-life at 1 µM [4]: 1.14 min

CN1CCN(c2cccc3nc(CN(C)[C@H]4CCCc5cccnc54)c(CO)n23)CC1
CLint scaled at 1 µM [3]: 651 mL/min/kg | half-life at 1 µM [4]: 3.82 min

Cc1nc(CN(C)[C@H]2CCCc3cccnc32)cc(N2CCN(C)[C@@H](C)C2)n1
CLint scaled at 1 µM [3]: 1550 mL/min/kg | half-life at 1 µM [4]: 1.6 min

CN1CCN(c2cc(CN(C)C3CCCc4cccnc43)nc(C3CC3)n2)CC1 (stereo unspecified)
CLint scaled at 1 µM [3]: 2440 mL/min/kg | half-life at 1 µM [4]: 1.02 min

Cc1nc(CN(C)C2CCCc3cccnc32)c(C#N)c(N2CCN(C)CC2)n1 (stereo unspecified)
CLint scaled at 1 µM [3]: 1640 mL/min/kg | half-life at 1 µM [4]: 1.51 min

Cc1nc(CN(C)[C@H]2CCCc3cccnc32)cc(N2CCN(C)CC2)n1
CLint scaled at 1 µM [3]: 1570 mL/min/kg | half-life at 1 µM [4]: 1.59 min

Cc1nc(CN2CCC[C@H]2c2ncccc2C)cc(N2CCN(C)CC2)n1
IC50 [1]: 0.25 nM | inhibition [5]: inactive | pKa [6]: 8.2 | inhibition at 10 min, 10 µM [7]: -5% | logD at 24 h [8]: 1.12 | inhibition at 10 min, 10 µM [9]: 1% | CLint scaled at 1 µM [3]: 123 mL/min/kg | fraction unbound at 1 µM [10]: 0.05 | Activity [11]: Non-Toxic | inhibition at 10 min, 10 µM [12]: -6% | IC50 [13]: > 30000 nM | Activity [14]: Non-Toxic | Activity [15]: Non-Toxic | fraction unbound at 1 µM [16]: 0.56 | inhibition at 10 min, 10 µM [17]: -4% | inhibition [18]: inactive | half-life at 1 µM [4]: 20.2 min | inhibition at 10 min, 10 µM [19]: 7% | Activity [20]: Active | inhibition at 10 min, 10 µM [21]: 11% | IC50 [2]: 79 nM | half-life at 1 µM [22]: 26.2 min | inhibition [23]: Active | CLint scaled at 1 µM [24]: 66 mL/min/kg | fraction unbound at 1 µM [25]: 0.67 | Activity [26]: Non-Toxic

Cc1nc(CN2CCCCC2c2ccccn2)cc(N2CCN(C)CC2)n1 (stereo unspecified)
IC50 [2]: 620 nM

CN1CCN(c2cc(CN(C)C3CCCc4cccnc43)nc(N)n2)CC1 (stereo unspecified)
CLint scaled at 1 µM [3]: 767 mL/min/kg | half-life at 1 µM [4]: 3.24 min

Cc1nc(CN2CCC[C@H]2c2ncccc2C)cc(N2CCC(N(C)C)CC2)n1
IC50 [1]: 13 nM

Cc1nc(CN(C)C2CCCc3cccnc32)c(F)c(N2CCN(C)CC2)n1 (stereo unspecified)
CLint scaled at 1 µM [3]: 1080 mL/min/kg | half-life at 1 µM [4]: 2.31 min

COc1nc(CN(C)C2CCCc3cccnc32)cc(N2CCN(C)CC2)n1 (stereo unspecified)
CLint scaled at 1 µM [3]: 1130 mL/min/kg | half-life at 1 µM [4]: 2.2 min

CCc1nc(CN(C)C2CCCc3cccnc32)cc(N2CCN(C)CC2)n1 (stereo unspecified)
CLint scaled at 1 µM [3]: 2090 mL/min/kg | half-life at 1 µM [4]: 1.19 min

Cc1nc(CN2CCCC2c2ccccn2)cc(N2CCN(C)CC2)n1 (stereo unspecified)
IC50 [2]: 319 nM

c1cc(CN2CCCNCCNCCCNCC2)ccc1CN1CCCNCCNCCCNCC1
inhibition [23]: Active

Cc1ccc([C@@H]2CCCN2Cc2cc(N3CCN(C)CC3)nc(C)n2)nc1
IC50 [1]: 4.9 nM

Cc1nc(CN2CCC[C@@H]2c2ccccn2)cc(N2CCN(C)CC2)n1
IC50 [2]: > 10000 nM

Cc1nc(CN(C)[C@H]2CCCc3cccnc32)cc(N2C[C@@H](C)N(C)[C@@H](C)C2)n1
CLint scaled at 1 µM [3]: > 497 mL/min/kg | half-life at 1 µM [4]: < 1 min

CCN(Cc1cc(N2CCN(C)CC2)nc(C)n1)C1CCCc2cccnc21 (stereo unspecified)
CLint scaled at 1 µM [3]: 1280 mL/min/kg | half-life at 1 µM [4]: 1.95 min

Cc1nc(CN2CCC[C@H]2c2ccccn2)cc(N2CCN(C)CC2)n1
IC50 [1]: 2.7 nM | IC50 [2]: 220 nM

Cc1ccnc([C@@H]2CCCN2Cc2cc(N3CCN(C)CC3)nc(C)n2)c1
IC50 [2]: 216 nM

Cc1nc(CN(C)[C@H]2CCCc3cccnc32)cc(N2CCN(C)[C@H](C)C2)n1
CLint scaled at 1 µM [3]: > 497 mL/min/kg | half-life at 1 µM [4]: < 1 min

Cc1nc(CN2CCC(C)C2c2ccccn2)cc(N2CCN(C)CC2)n1 (stereo unspecified)
IC50 [2]: 1550 nM

Cc1nc(CN(C)[C@H]2CCCc3cccnc32)cc(N2CCN3CCC[C@H]3C2)n1
CLint scaled at 1 µM [3]: > 497 mL/min/kg | half-life at 1 µM [4]: < 1 min
